Results on two molecules are retold here after patent publication EP3807270B1, “NOVEL HETEROARYL HETEROCYCLYL COMPOUNDS FOR THE TREATMENT OF AUTOIMMUNE DISEASE” (F. Hoffmann-La Roche AG, priority 2018, dated 2019).

The target of one data set is T1, hERG channel (Homo sapiens, UniProt Q12809).
T1 construct: expressed in transfected cells; host or cells: CHO (Chinese hamster ovary)
In words: hERG channel inhibition assay (patch-clamp, CHO hERG cells). The following applies: for IC50 / IC20: CHO hERG cells, whole-cell patch-clamp; for IC20: human, CHO cells stably expressing hERG; for hERG IC20 / TLR7 IC50 / hERG IC20 / TLR9 IC50: safety ratio; for hERG IC20 / TLR7 IC50: TLR7 IC50 of ER compounds from Table 1; for hERG IC20 / TLR9 IC50: TLR9 IC50 of ER compounds from Table 1. In kind it is cell-based. The protocol:
The hERG K^+ channels were cloned in humans and stably expressed in a CHO (Chinese hamster ovary) cell line. CHOhERG cells were used for patch-clamp (voltage-clamp, whole-cell) experiments. Cells were stimulated by a voltage pattern to activate hERG channels and conduct IKhERG currents (rapid delayed outward rectifier potassium current of the hERG channel). After the cells were stabilized for a few minutes, the amplitude and kinetics of IKhERG were recorded at a stimulation frequency of 0.1 Hz (6 bpm). Thereafter, the test compound was added to the preparation at increasing concentrations. For each concentration, an attempt was made to reach a steady-state effect, usually, this was achieved within 3-10 min at which time the next highest concentration was applied. The amplitude and kinetics of IKhERG are recorded in each concentration of the drug which were compared to the control values (taken as 100%). (references: Redfern WS, Carlsson L, Davis AS, Lynch WG, MacKenzie I, Palethorpe S, Siegl PK, Strang I, Sullivan AT, Wallis R, Camm AJ, Hammond TG. 2003; Relationships between preclinical cardiac electrophysiology, clinical QT interval prolongation and torsade de pointes for a broad range of drugs: evidence for a provisional safety margin in drug development. Cardiovasc. Res. 58:32-45, Sanguinetti MC, Tristani-Firouzi M. 2006; hERG potassium channels and cardiac arrhythmia. Nature 440:463-469, Webster R, Leishman D, Walker D. 2002; Towards a drug concentration effect relationship for QT prolongation and torsades de pointes. Curr. Opin. Drug Discov. Devel. 5:116-26).
Table 3. hERG and safety ratio results

Data set [1] is described as follows: Human microsome stability assay. In kind it is in vitro ADME. Conditions: 1 µM test compound, 0.5 mg/mL liver microsomal protein, 37 °C. The protocol:
The human microsomal stability assay is used for early assessment of metabolic stability of a test compound in human liver microsomes.
Human liver microsomes (Cat.NO.: 452117, Corning, USA;Cat.NO.:H2610, Xenotech, USA) were preincubated with test compound for 10 minutes at 37 °C in 100 mM potassium phosphate buffer, pH 7.4. The reactions were initiated by adding NADPH regenerating system. The final incubation mixtures contained 1 µM test compound, 0.5 mg/mL liver microsomal protein, 1 mM MgClz, 1 mM NADP, 1 unit/mL isocitric dehydrogenase and 6 mM isocitric acid in 100 mM potassium phosphate buffer, pH 7.4. After incubation times of 0, 3, 6, 9, 15 and 30 minutes at 37 °C, 300 µL of cold acetonitrile (including internal standard) was added to 100 µL incubation mixture to terminate the reaction. Following precipitation and centrifugation, the amount of compound remaining in the samples were determined by LC-MS/MS. Controls of no NADPH regenerating system at zero and 30 minutes were also prepared and analyzed. […] Table 6. Human liver microsome stability of the compounds of present invention
On the technique in general: Liver microsomes are a subcellular fraction often used to study metabolism.

Another data set addresses T2, hTLR7 (Homo sapiens, UniProt Q9NYK1).
T2 sequence (Q9NYK1 27-1049): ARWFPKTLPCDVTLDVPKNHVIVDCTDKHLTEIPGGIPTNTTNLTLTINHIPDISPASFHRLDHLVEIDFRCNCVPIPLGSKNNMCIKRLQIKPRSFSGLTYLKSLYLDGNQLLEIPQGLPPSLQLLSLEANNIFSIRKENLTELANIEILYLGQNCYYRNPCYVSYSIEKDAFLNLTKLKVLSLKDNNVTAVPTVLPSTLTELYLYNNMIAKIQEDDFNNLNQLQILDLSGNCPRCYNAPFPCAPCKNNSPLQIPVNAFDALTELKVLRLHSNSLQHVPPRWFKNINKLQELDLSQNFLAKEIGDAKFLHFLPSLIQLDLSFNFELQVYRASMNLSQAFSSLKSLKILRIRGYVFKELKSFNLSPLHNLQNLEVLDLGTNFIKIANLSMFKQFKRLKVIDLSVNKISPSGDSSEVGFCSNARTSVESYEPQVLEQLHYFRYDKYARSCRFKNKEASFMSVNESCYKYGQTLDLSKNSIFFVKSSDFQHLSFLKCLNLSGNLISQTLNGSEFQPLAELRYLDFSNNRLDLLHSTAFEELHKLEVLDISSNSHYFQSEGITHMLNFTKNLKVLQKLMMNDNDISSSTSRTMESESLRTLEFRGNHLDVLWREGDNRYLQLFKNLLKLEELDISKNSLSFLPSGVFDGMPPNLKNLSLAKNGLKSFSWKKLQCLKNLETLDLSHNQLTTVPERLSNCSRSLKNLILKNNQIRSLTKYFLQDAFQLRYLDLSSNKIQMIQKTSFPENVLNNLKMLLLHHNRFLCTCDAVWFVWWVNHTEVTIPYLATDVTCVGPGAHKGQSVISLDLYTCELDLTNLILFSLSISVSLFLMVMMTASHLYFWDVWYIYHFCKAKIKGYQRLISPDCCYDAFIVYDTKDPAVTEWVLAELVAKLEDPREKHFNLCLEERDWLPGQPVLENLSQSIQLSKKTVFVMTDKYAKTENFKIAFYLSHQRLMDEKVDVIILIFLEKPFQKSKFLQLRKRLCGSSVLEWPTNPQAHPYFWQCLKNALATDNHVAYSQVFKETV
More on the design: host or cells: HEK. The following applies: data disclosed in US20150105370; read-out: HEK/hTLR7 IC50; cited from earlier work.

A further data set addresses T3, hTLR9 (Homo sapiens, UniProt Q9NR96).
T3 sequence (Q9NR96 26-1032): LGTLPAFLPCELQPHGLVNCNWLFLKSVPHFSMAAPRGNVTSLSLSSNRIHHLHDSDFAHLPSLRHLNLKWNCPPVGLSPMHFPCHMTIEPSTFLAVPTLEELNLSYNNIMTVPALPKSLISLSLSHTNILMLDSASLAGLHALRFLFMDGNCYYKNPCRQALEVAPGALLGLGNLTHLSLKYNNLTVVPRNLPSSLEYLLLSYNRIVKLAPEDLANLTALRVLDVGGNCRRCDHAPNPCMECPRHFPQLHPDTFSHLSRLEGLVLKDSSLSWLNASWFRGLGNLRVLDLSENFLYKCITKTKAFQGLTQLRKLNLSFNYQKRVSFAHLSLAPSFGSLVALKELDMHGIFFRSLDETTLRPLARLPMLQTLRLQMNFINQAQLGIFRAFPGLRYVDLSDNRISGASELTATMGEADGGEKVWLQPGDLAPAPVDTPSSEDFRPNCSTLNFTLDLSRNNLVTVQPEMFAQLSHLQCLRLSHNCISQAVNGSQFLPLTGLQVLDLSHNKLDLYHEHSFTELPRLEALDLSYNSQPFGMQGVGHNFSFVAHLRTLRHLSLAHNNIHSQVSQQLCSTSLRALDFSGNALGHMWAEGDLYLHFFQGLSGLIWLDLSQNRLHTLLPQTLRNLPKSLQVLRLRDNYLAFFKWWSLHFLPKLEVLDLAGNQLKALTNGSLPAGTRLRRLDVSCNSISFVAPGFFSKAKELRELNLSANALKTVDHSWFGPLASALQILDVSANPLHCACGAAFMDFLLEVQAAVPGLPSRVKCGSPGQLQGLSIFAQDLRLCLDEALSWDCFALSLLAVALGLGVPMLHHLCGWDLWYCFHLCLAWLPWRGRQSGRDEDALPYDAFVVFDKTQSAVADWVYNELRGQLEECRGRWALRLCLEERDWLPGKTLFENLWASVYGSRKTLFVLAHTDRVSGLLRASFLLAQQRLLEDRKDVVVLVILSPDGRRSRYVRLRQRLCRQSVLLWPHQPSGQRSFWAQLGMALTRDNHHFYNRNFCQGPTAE
Also on record: host or cells: HEK. Conditions: data disclosed in US20150105370; read-out: HEK/hTLR9 IC50; cited from earlier work.

Some results are limits rather than exact numbers.

T1 sequence (Q12809 whole entry): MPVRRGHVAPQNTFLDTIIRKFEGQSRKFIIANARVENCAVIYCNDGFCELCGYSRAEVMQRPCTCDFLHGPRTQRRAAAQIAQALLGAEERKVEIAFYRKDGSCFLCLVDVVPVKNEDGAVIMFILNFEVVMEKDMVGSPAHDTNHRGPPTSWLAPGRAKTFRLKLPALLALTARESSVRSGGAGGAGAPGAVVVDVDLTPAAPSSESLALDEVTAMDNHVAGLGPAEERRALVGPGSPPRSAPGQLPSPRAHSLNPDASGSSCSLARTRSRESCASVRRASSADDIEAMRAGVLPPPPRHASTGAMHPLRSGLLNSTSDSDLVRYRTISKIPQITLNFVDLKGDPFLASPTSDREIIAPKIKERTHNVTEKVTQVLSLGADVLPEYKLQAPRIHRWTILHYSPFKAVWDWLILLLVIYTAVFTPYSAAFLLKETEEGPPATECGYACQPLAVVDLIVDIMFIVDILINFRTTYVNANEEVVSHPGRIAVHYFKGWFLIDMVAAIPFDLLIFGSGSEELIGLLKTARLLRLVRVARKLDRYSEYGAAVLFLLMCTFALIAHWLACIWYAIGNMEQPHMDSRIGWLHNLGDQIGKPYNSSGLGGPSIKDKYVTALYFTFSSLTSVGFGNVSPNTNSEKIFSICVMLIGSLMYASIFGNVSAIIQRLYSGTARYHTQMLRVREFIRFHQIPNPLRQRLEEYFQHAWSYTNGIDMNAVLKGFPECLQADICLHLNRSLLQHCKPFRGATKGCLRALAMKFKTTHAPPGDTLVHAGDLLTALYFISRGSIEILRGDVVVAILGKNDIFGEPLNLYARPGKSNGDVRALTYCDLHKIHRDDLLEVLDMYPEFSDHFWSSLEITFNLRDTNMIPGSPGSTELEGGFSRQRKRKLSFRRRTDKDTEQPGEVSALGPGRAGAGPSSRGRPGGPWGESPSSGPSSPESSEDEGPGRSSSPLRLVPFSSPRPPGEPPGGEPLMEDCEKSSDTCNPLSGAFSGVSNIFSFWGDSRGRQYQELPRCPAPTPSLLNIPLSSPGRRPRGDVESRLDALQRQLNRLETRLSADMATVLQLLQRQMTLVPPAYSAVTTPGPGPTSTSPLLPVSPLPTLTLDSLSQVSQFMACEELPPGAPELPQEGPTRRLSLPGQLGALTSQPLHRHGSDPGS

Turning to `C[C@@H]1CN(c2ccc(C#N)c3ncccc23)C[C@H](CN2CCN(c3ccccc3)CC2)O1` [ER-887258, reference compound], at hERG channel, the IC50 turned out to be 2.78 µM, the IC20 (commonly the concentration at which the effect reaches the 20% level) was determined as 0.687 µM, the “hERG IC20 / TLR7 IC50” value was determined as 8.1 and the “hERG IC20 / TLR9 IC50” value amounted to 0.3. Also, the “Clearance of Human microsome” value in data set [1] was found to be 17.86 mL/min/kg. For the same molecule, the IC50 at hTLR7 was 0.0852 µM. Besides, at hTLR9, the IC50 is above 2 µM.
On to `C[C@@H]1CN(c2ccc(C#N)c3ncccc23)C[C@H](CN2CCN(c3ccccn3)CC2)O1` [ER-888285, reference compound], for which, on hERG channel, the IC50 was found to be 3.11 µM, it took 1.01 µM to reach the 20% level (IC20), the “hERG IC20 / TLR7 IC50” value was found to be 8.4 and the “hERG IC20 / TLR9 IC50” value came to 0.5. Further, the “Clearance of Human microsome” value in data set [1] is listed as 17.15 mL/min/kg. On hTLR7, the IC50 is 0.12 µM. Also, the IC50 at hTLR9 was above 2 µM.
